Positions of bridges follow the written chain, without caps; N, C: chain ends. No end group written: not given here.
What was measured:
FcγIIa = experiment: Inhibition of FcR binding to PAP by additional peptides, FcγIIa coated plates (Example 8); conditions: for OD 405 nm: OD read at 405 nm, positive control 1.599
Protocol: (§1) Falcon microtiter plates were coated with 1:10 dilutions of highly purified FcγIIa, FcγIIb and FcγIII, sealed, and incubated for […] at 4° C. […] PAP immune complexes were formed as described in Example 5. PAP (100 μl) were pre-incubated with 100 μl of peptide for one hour. PAP/peptide mixtures were added to the FcR coated plates and incubated for one hour. After washing, plates were incubated with ABTS substrate for 15 minutes and read at 405 nm.

C1q = experiment: Inhibition of C1q binding to immune complexes using additional peptides (Example 6); set-up: species or system human; conditions: for OD 405 nm: PAP pre-incubated with peptide or human C1q one hour, C1q coated plates, positive control 2.355
Protocol: The C1q/PAP and peptide/PAP mixtures (100 μl) were incubated with C1q coated plates for 30 minutes. After washing, plates were incubated with ATBS (Quidel Corp.) for 15 minutes and read at 405 nm.

human monomeric IgG = experiment: Inhibition of RF binding to monomeric IgG by additional peptides (Example 7); conditions: peptides pre-incubated 1 hour with monomeric IgG, then 200 I.U. RF; positive control 1.312
Protocol: The ability of additional peptides to inhibit RF binding to monomeric IgG was tested. A standard rheumatoid factor commercial test was used (Research Diagnostics, New Jersey) with the following modifications: 100 μl of test peptides were pre-incubated for 1 hour with human monomeric IgG (Research Diagnostics, New Jersey). Plates were then washed and incubated with 200 I.U. of the RF positive control supplied with the test kit. The rest of the test was performed according to the manufacturer's instructions.

FcγIIb = experiment: Inhibition of FcR binding to PAP by additional peptides, FcγIIb coated plates (Example 8); conditions: OD read at 405 nm; positive control 1.394
Protocol: as §1

RF = experiment: Inhibition of RF binding to immune complexes using additional peptides (Example 5); conditions: for OD 405 nm: PAP pre-incubated with peptide one hour, RF coated plates, positive control 1.176
Protocol: The ability of additional peptides to inhibit the binding of RF to immune complexes was tested. Immune complexes (PAP) were formed by mixing 2 μl of rabbit anti-peroxidase with 50 μl of peroxidase in 1 ml distilled water. PAP (100 μl) were pre-incubated with 100 μl of peptide for one hour. Plates coated with RF were blocked with 5× BSA for 24 hours. The PAP/peptide mixtures (100 μl) were incubated with the RF coated plates for 30 minutes. RF (100 μl of a 200 I.U. standard supplied by Research Diagnostics) was used as a negative control. After washing and incubation with ABTS substrate (Quidel Corp., San Diego, Calif.) for 15 minutes, plates were read at 405 nm.

FcγIII = experiment: Inhibition of FcR binding to PAP by additional peptides, FcγIII coated plates (Example 8); conditions: OD read at 405 nm; positive control 1.588
Protocol: as §1

MBP = system: MBP
Protocol: Inhibition of MBP binding: MBP (Sigma) was diluted 1:10 with coating buffer (Alpha Diagnostic International) and incubated for 24 hours on Falcon microtiter plates. Plates were washed and then blocked with 5× BSA blocking buffer (Alpha Diagnostic International) for 24 hours. Rabbit 1:10 PAP immune complexes were pre-incubated with equal amounts of peptide or MBP for 30 minutes. One hundred μl of PAP immune complexes/peptide or PAP/MBP was then added to the MBP-coated plates and incubated for one hour. The plates were washed and incubated with TMB substrate (Alpha Diagnostic International) for 30 minutes. After adding stop solution (Alpha Diagnostic International), the plates were read at 450 nm.
Further experiments were conducted to determine the effect of SEQ ID NO:47 (also referred to as NB-406) on binding of MBP to IgG PAP immune complexes.

histone = experiment: Inhibition of histone binding: PAP immune complexes on histone-coated plates (Example 3)
Protocol: Inhibition of histone binding: The binding of immune complexes to the kidneys in lupus nephritis appears to involve (a) the binding of histones to the GBM, and then (b) the binding of immune complexes (through the IgG Fc CH2-CH3 cleft) to the bound histones. Experiments similar to those described above were used to inhibit binding of purified histone to IgG Fc binding. Histone (Sigma) was diluted 1:10 in coating buffer (Alpha Diagnostic International) and incubated on Falcon microtiter plates for 24 hours. Plates were blocked with 5× BSA blocking solution (Alpha Diagnostic International) for 24 hours. Freshly prepared 1:10 rabbit PAP (Sigma) was pre-incubated with either peptides or histone for one hour, and 100 μl of the mixture was added to the histone-coated plates for one hour. Plates were incubated with ABTS substrate (Quidel Corp.) for 45 minutes, and OD 405 was read.

| Sequence | OD 405 nm (FcγIIa) | OD 405 nm (C1q) | OD 405 nm (human monomeric IgG) | OD 405 nm (FcγIIb) | OD 405 nm (RF) | OD at 405 nm (FcγIII) | inhibition of FcR binding to PAP, in words (FcγIIa; Table 13, statement for FcγIIa, FcγIIb and FcγIII together) | inhibition of C1q binding, in words (C1q; Table 11) | OD 405 nm (MBP; Table 7 experiment, IgG PAP immune complexes, positive control 2.343) | inhibition of MBP binding to immune complexes, in words (MBP; text on Tables 6 and 7) | OD 405 nm (histone; Table 5 experiment, IgG PAP immune complexes, positive control 2.110) | inhibition of histone binding to immune complexes, in words (histone; text on Tables 4 and 5) | inhibition of RF binding to immune complexes, in words (RF; Table 10) |
| --- | --- | --- | --- | --- | --- | --- | --- | --- | --- | --- | --- | --- | --- |
| APPCAFHLGELVWCT (disulfide 4-14 (inferred)) | 0.605 | 0.983 | 1.159 | 0.380 | 0.226 | 0.880 |  |  |  |  |  |  |  |
| APPCAWHLGELVWCT (disulfide 4-14 (inferred)) | 0.658 | 1.148 | 1.166 | 0.562 | 0.250 | 0.530 |  |  |  |  |  |  |  |
| APPDCAWHLGELVWCT (Synthetically generated polypeptide) | 0.509 | 0.389 | 1.065 | 0.496 | 0.205 | 0.670 | greatest inhibition | greatest inhibition | 0.500 | able to inhibit | 0.227 | significantly inhibit | best inhibition |
| DCAFHLGELVWCT (disulfide 2-12 (inferred)) | 0.660 | 0.859 | 0.962 | 0.510 | 0.267 | 0.810 |  |  |  |  |  |  |  |

From patent publication US7786258B2, “Methods for inhibiting immune complex formation in a subject” (Trinity Therapeutics, Inc., priority 2004, dated 2010)
